Assays:
Assay type in all cases: physicochemical
[1] = disintegration time of molded cylindrical product (Japanese Pharmacopeia disintegration test); settings: 37° C., pure water
Method: (§1) The hardness of the molded cylindrical product thus obtained was measured by a Schleuniger hardness tester type 6D (Trademark, manufactured by FREUND Corporation). More specifically, a load pressure was applied to the molded cylindrical product or a tablet in the direction of the diameter to break it. The weight at the moment was measured. The hardness was represented by an average value of 10 samples. Furthermore, the disintegration time of the molded cylindrical product was determined in accordance with a general test method, a disintegration test method for tablets specified in the Japanese Pharmacopeia, 14th revision, by use of a disintegration tester (Toyama Sangyo Co., Ltd., Trade name: NT-40HS type with a disk), at 37° C. in pure water. The disintegration time was represented by an average of 6 tablets

[2] = hardness of molded cylindrical product (Schleuniger hardness tester type 6D)
Method: as §1

[3] = storage stability test of an equivalent mixture with L-arginine (degree of whiteness, coloration); settings: for appearance (color) after storage / decrease ratio in degree of whiteness: 40° C., 2 weeks; for appearance (color) after storage / decrease ratio in degree of whiteness / degree of whiteness after the test: 75% RH, airtight; for degree of whiteness after the test: after 2 weeks at 40° C.; for degree of whiteness at the onset: at onset/initiation of the storage test
Text: In a β-glucan derivative according to the present invention, a non-reducing end needs not to be bound to all reducing ends. A non-reducing end may be bound to reducing ends to the extent that an active ingredient such as a medicament or the like having an amino group is stably present. The conversion rate of a reducing end of the β-glucan into a non-reducing end is preferably 0.1 mol % or more. Whether an active ingredient is present in a stable state can be readily checked by an observation based on degree of coloration in a storage stability test in a condition that is performed by mixing an active ingredient and a β-glucan derivative in equivalent amounts and stored the mixture at 40° C. under 75%. Since it has a reducing end, β-glucan is known to initiate the Maillard reaction with an active ingredient having a terminal amino group to form an amino-carbonyl bond and produce color. However, a β-glucan derivative according to the present invention has an advantageous effect in that since the reducing end is inactivated by a non-reducing sugar, no coloring reaction takes place. The effect of the present invention is particularly effective for an active ingredient having a primary amine.
Whether fructose was bound was confirmed based on an increase of a peak in a mass spectrum and a storage stability test of an equivalent mixture of the obtained transglucosylated product and L-arginine contained at 40° C. and 75% RH, airtight for 2 weeks. A decrease ratio in degree of whiteness was 2% (it was 99% at the onset and 97% after the test).

| Substance | disintegration time of the molded cylindrical product ([1]; compressed at 25 kN, with disk, average of 6) | hardness of the molded cylindrical product ([2]; compressed at 25 kN, φ8 mm, average of 10 samples) | appearance (color) after storage [3] | decrease ratio in degree of whiteness [3] | degree of whiteness after the test [3] | degree of whiteness at the onset [3] | disintegration time of the molded cylindrical product ([1]; compression pressure 35 kN) | hardness of the molded cylindrical product ([2]; compression pressure 35 kN) |
| --- | --- | --- | --- | --- | --- | --- | --- | --- |
| transglucosylated cellotriose [Example 1] | 58 s | 70 N | White color in appearance was maintained | 2% | 97% | 99% |  |  |
| transglucosylated cellobiose [Comparative Example 2] |  |  | White color in appearance was maintained | 3% | 96% | 99% | 300 s | 80 N |

Source: US7795240B1, “Nonreducing beta-glucan derivative” (Asahi Kasei Chemicals Corporation, priority 2003, dated 2010)
